# Reference: publication PMC2724708, “Adenosine Kinase of T. b. rhodesiense Identified as the Putative Target of 4-[5-(4-phenoxyphenyl)-2H-pyrazol-3-yl]morpholine Using Chemical Proteomics” (PLoS Neglected Tropical Diseases, 2009)
# Legend:
# [1] = biological target: T1, adenosine kinase of T. b. rhodesiense (TbrAK) (Trypanosoma brucei rhodesiense, UniProt Q584S0); experiment: Thermal stability assay (CD spectroscopy) regarding TbrAK; format: binding
# T1 sequence (Q584S0 1-345): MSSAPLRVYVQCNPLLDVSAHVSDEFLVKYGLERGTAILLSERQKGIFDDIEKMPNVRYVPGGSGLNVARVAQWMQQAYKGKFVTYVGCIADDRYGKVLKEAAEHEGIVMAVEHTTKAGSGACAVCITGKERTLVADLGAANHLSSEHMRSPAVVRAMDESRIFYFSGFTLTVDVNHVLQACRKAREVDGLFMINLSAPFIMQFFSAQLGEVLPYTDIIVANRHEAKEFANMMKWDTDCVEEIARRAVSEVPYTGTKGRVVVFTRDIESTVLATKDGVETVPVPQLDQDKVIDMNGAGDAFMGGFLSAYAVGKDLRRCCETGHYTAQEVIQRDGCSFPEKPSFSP
# Procedure: Thermal unfolding of TbrGAPDH and TbrAK was studied by circular dichroism (CD) spectroscopy at 220 nm within the temperature range of 20–90°C using a heating rate of 40°C/h.
# (§1) TbrAK in buffer E1 (20 mM Hepes, 150 mM NaCl, pH 7.0) was used at 0.5 mg/ml (final concentration 13 µM). All measurements were done in a 0.5 mm cell and contained 0.1 % DMSO and 2.5 mM EDTA to prevent enzyme activity. Thermal stability was analyzed in presence of 500 µM substrate to record the maximum stability limit, whereas compounds 1 to 5 were used at a concentration of 50 µM, being the highest concentration achievable for compound 2, to allow comparison of all compounds at the same concentration. For evaluation of the CD spectra, the buffer spectrum was subtracted from the protein CD spectrum. All thermal unfolding curves were fitted to a two-state model that had been published recently. The mean of three independent experiments are reported. […]
# [2] = biological target: T2, glycosomal T. b. rhodesiense glyceraldehyde-3-phosphate dehydrogenase (TbrGAPDH) (Trypanosoma brucei brucei, UniProt P22512); experiment: Thermal stability assay (CD spectroscopy) regarding TbrGAPDH; format: binding; conditions: compound at 50 µM
# T2 construct: made in house; host or cells: E. coli BL21(DE3), pET28a
# Procedure: Thermal unfolding of TbrGAPDH and TbrAK was studied by circular dichroism (CD) spectroscopy at 220 nm within the temperature range of 20–90°C using a heating rate of 40°C/h. […]
# All measurements were done in a 0.5 mm cell and contained 0.1 %
# as §1, with “DMSO” for “TbrAK in buffer E1 (20 mM Hepes, 150 mM NaCl, pH 7.0) was used at 0.5 mg/ml (final concentration 13 µM). All measurements were done in a 0.5 mm cell and contained 0.1 % DMSO”
# T2 sequence (P22512 whole entry): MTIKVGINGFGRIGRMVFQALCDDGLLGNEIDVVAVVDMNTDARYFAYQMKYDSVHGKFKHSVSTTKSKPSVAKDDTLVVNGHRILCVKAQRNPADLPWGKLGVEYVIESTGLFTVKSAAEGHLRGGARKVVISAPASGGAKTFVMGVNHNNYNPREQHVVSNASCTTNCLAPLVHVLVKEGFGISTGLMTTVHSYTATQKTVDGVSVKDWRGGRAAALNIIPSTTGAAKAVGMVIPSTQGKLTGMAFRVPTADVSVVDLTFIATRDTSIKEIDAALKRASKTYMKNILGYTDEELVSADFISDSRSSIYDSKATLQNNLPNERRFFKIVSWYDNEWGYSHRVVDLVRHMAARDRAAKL
smiles,measurement,setting,value
"c1ccc(Oc2ccc(-c3cc(N4CCOCC4)[nH]n3)cc2)cc1 [compound 1, 4-[5-(4-phenoxyphenyl)-2H-pyrazol-3-yl]morpholine]",Tm of TbrAK,"[1]; compound at 50 µM, 13 µM TbrAK",47.9±0.1 °C
same,ΔTm at 50 µM,[1]; read-out: ΔTm of TbrAK,4.8 °C
same,Tm of TbrGAPDH,[2],46.8 ± 0.1 °C
